From patent US20250098679A1, “HERBICIDAL PYRIDONE DERIVATIVES” (SYNGENTA CROP PROTECTION AG, priority 2021, published 2025)

Tests used:
Format in all cases: in vivo
Settings in all cases: evaluated after 13 days
[1] = system: Setaria faberi (SETFA); assay: Pre-emergence Test, Setaria faberi (SETFA)
[2] = system: Echinochloa crus-galli (ECHCG); assay: Pre-emergence Test, Echinochloa crus-galli (ECHCG)
[3] = system: Zea mays (ZEAMX); assay: Pre-emergence Test, Zea mays (ZEAMX)
[4] = system: Ipomoea hederacea (IPOHE); assay: Pre-emergence Test, Ipomoea hederacea (IPOHE)
[5] = system: Amaranthus palmeri (AMAPA); assay: Pre-emergence Test, Amaranthus palmeri (AMAPA)
[6] = system: Amaranthus retoflexus (AMARE); assay: Pre-emergence Test, Amaranthus retoflexus (AMARE)
[7] = system: Setaria faberi (SETFA); assay: Post-emergence Test, Setaria faberi (SETFA); design: key to percentage damage caused to the plant, SETFA (five-point scale): 5=81-100%, 4=61-80%, 3=41-60%, 2=21-40%, 1=0-20% damage
Summary of the method: (§1)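 Scores are percentage plant damage on a 1–5 scale (1=0-20%, 2=21-40%, 3=41-60%, 4=61-80%, 5=81-100%), read 13 days after treatment. Pots received a spray at 1000 g/ha unless otherwise stated, formulated in acetone/water (50:50) containing 0.5% Tween 20.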

[8] = system: Echinochloa crus-galli (ECHCG); assay: Post-emergence Test, Echinochloa crus-galli (ECHCG); design: key to percentage damage caused to the plant, ECHCG (five-point scale): 5=81-100%, 4=61-80%, 3=41-60%, 2=21-40%, 1=0-20% damage
Summary of the method: as §1

[9] = system: Zea mays (ZEAMX); assay: Post-emergence Test, Zea mays (ZEAMX); design: key to percentage damage caused to the plant, ZEAMX (five-point scale): 5=81-100%, 4=61-80%, 3=41-60%, 2=21-40%, 1=0-20% damage
Summary of the method: as §1

[10] = system: Ipomoea hederacea (IPOHE); assay: Post-emergence Test, Ipomoea hederacea (IPOHE); design: key to percentage damage caused to the plant, IPOHE (five-point scale): 5=81-100%, 4=61-80%, 3=41-60%, 2=21-40%, 1=0-20% damage
Summary of the method: as §1

[11] = system: Amaranthus palmeri (AMAPA); assay: Post-emergence Test, Amaranthus palmeri (AMAPA); design: key: 5=81-100%, 4=61-80%, 3=41-60%, 2=21-40%, 1=0-20% damage
Summary of the method: as §1

[12] = system: Amaranthus retoflexus (AMARE); assay: Post-emergence Test, Amaranthus retoflexus (AMARE); design: key to percentage damage caused to the plant, AMARE (five-point scale): 5=81-100%, 4=61-80%, 3=41-60%, 2=21-40%, 1=0-20% damage
Summary of the method: as §1

Compound	Pre-emergence Test SETFA, percentage damage caused to the plant (five-point scale) ([1]; 250 g/Ha (*))	Pre-emergence Test SETFA, percentage damage caused to the plant (five-point scale) ([1]; 1000 g/ha)	Pre-emergence Test ECHCG, percentage damage caused to the plant (five-point scale) ([2]; 250 g/Ha (*))	Pre-emergence Test ECHCG, percentage damage caused to the plant (five-point scale) ([2]; 1000 g/ha)	Pre-emergence Test ZEAMX, percentage damage caused to the plant (five-point scale) ([3]; 1000 g/ha)	Pre-emergence Test IPOHE, percentage damage caused to the plant (five-point scale) ([4]; 1000 g/ha)	Pre-emergence Test AMAPA, percentage damage caused to the plant (five-point scale) ([5]; 1000 g/ha)	Pre-emergence Test AMARE, percentage damage caused to the plant (five-point scale) ([6]; 1000 g/ha)	percentage damage caused to the plant, SETFA (five-point scale) ([7]; 250 g/Ha)	percentage damage caused to the plant, SETFA (five-point scale) ([7]; 1000 g/ha)	percentage damage caused to the plant, ECHCG (five-point scale) ([8]; 250 g/Ha)	percentage damage caused to the plant, ECHCG (five-point scale) ([8]; 1000 g/ha)	percentage damage caused to the plant, ZEAMX (five-point scale) ([9]; 250 g/Ha)	percentage damage caused to the plant, ZEAMX (five-point scale) ([9]; 1000 g/ha)	percentage damage caused to the plant, IPOHE (five-point scale) ([10]; 250 g/Ha)	percentage damage caused to the plant, IPOHE (five-point scale) ([10]; 1000 g/ha)	percentage damage caused to the plant, AMAPA (five-point scale) ([11]; 250 g/Ha)	percentage damage caused to the plant, AMAPA (five-point scale) ([11]; 1000 g/ha)	percentage damage caused to the plant, AMARE (five-point scale) ([12]; 250 g/Ha)	percentage damage caused to the plant, AMARE (five-point scale) ([12]; 1000 g/ha)	also measured
CCn1c(Cn2cc(Cl)cn2)cc(=O)c(C(=O)O)c1-c1ccc(Cl)c(Cl)c1 [Compound 14, 6-[(4-chloropyrazol-1-yl)methyl]-2-(3,4-dichlorophenyl)-1-ethyl-4-oxo-pyridine-3-carboxylic acid]	3 (3=41-60%)	5 (5=81-100%)	4 (4=61-80%)	5 (5=81-100%)	0	0	1 (1=0-20%)	1 (1=0-20%)	2 (2=21-40%)	4 (4=61-80%)	1 (1=0-20%)	4 (4=61-80%)	1 (1=0-20%)	1 (1=0-20%)	3 (3=41-60%)	3 (3=41-60%)	1 (1=0-20%)	3 (3=41-60%)	1 (1=0-20%)	1 (1=0-20%)	Pre-emergence Test ZEAMX, percentage damage caused to the plant (five-point scale) ([3]; 250 g/Ha (*)): 0; Pre-emergence Test IPOHE, percentage damage caused to the plant (five-point scale) ([4]; 250 g/Ha (*)): 0; Pre-emergence Test AMAPA, percentage damage caused to the plant (five-point scale) ([5]; 250 g/Ha (*)): 0; Pre-emergence Test AMARE, percentage damage caused to the plant (five-point scale) ([6]; 250 g/Ha (*)): 0
CCn1c(Cn2nc(Cl)cc2C)cc(=O)c(C(=O)O)c1-c1ccc(Cl)c(Cl)c1 [Compound 15, 6-[(3-chloro-5-methyl-pyrazol-1-yl)methyl]-2-(3,4-dichlorophenyl)-1-ethyl-4-oxo-pyridine-3-carboxylic acid]		4 (4=61-80%)		4 (4=61-80%)	2 (2=21-40%)	3 (3=41-60%)	5 (5=81-100%)	2 (2=21-40%)	3 (3=41-60%)	4 (4=61-80%)	4 (4=61-80%)	4 (4=61-80%)	2 (2=21-40%)	3 (3=41-60%)	3 (3=41-60%)	5 (5=81-100%)	5 (5=81-100%)	5 (5=81-100%)	5 (5=81-100%)	3 (3=41-60%)	
CCn1c(Cn2cncc2C(F)(F)F)cc(=O)c(C(=O)O)c1-c1ccc(Cl)c(Cl)c1 [Compound 16, 2-(3,4-dichlorophenyl)-1-ethyl-4-oxo-6-[[5-(trifluoromethyl)imidazol-1-yl]methyl]pyridine-3-carboxylic acid]	0	1 (1=0-20%)	1 (1=0-20%)	4 (4=61-80%)	0	0	5 (5=81-100%)	4 (4=61-80%)	2 (2=21-40%)	5 (5=81-100%)	2 (2=21-40%)	4 (4=61-80%)	0	4 (4=61-80%)	2 (2=21-40%)	5 (5=81-100%)	4 (4=61-80%)	5 (5=81-100%)	4 (4=61-80%)	1 (1=0-20%)	Pre-emergence Test ZEAMX, percentage damage caused to the plant (five-point scale) ([3]; 250 g/Ha (*)): 0; Pre-emergence Test IPOHE, percentage damage caused to the plant (five-point scale) ([4]; 250 g/Ha (*)): 0; Pre-emergence Test AMAPA, percentage damage caused to the plant (five-point scale) ([5]; 250 g/Ha (*)): 3 (3=41-60%); Pre-emergence Test AMARE, percentage damage caused to the plant (five-point scale) ([6]; 250 g/Ha (*)): 1 (1=0-20%)
CCn1c(Cn2nc(C)cc2Cl)cc(=O)c(C(=O)O)c1-c1ccc(Cl)c(Cl)c1 [Compound 17, 6-[(5-chloro-3-methyl-pyrazol-1-yl)methyl]-2-(3,4-dichlorophenyl)-1-ethyl-4-oxo-pyridine-3-carboxylic acid]		4 (4=61-80%)		4 (4=61-80%)	2 (2=21-40%)	3 (3=41-60%)	5 (5=81-100%)	2 (2=21-40%)	3 (3=41-60%)	4 (4=61-80%)	4 (4=61-80%)	4 (4=61-80%)	2 (2=21-40%)	3 (3=41-60%)	3 (3=41-60%)	5 (5=81-100%)	5 (5=81-100%)	5 (5=81-100%)	5 (5=81-100%)	3 (3=41-60%)	
CCn1c(Cn2ccc(C(F)(F)F)n2)c(Br)c(=O)c(C(=O)O)c1-c1ccc(Cl)c(Cl)c1 [Compound 18, 5-bromo-2-(3,4-dichlorophenyl)-1-ethyl-4-oxo-6-[[3-(trifluoromethyl)pyrazol-1-yl]methyl]pyridine-3-carboxylic acid]		2 (2=21-40%)		1 (1=0-20%)	0	0	0	0	1 (1=0-20%)	3 (3=41-60%)	1 (1=0-20%)	3 (3=41-60%)	1 (1=0-20%)	2 (2=21-40%)	1 (1=0-20%)	1 (1=0-20%)	0	2 (2=21-40%)	1 (1=0-20%)	1 (1=0-20%)	
